US20240318141A1, “MATURATION AGENT” (Orizuru Therapeutics, Inc., priority 2021, published 2024)
Where “and” joins values, the source holds several entries; their conditions need not be identical. Equal values may be shown once.

What was measured:
Assay type in all cases: cell-based, human
[1] = tested on: non-endocrine cells in insulin-producing cell population (QHJI-114s04 iPS cell line); assay: Docetaxel treatment of cell population comprising insulin-producing cells, then extended culture in basal medium containing EGF (Example 4); details: for proportions of PDX1+/CHGA− and PDX1−/CHGA− cells after extended culture involving EGF: with respect to control cell population
Description: The differentiation of a QHJI-114s04 iPS cell line into an insulin-producing cell population was induced by the three-dimensional culture method using a bioreactor according to steps 1) to 6) described above and the previous report (Nature Biotechnology 2014; 32: 1121-1133). Specifically, the iPS cells were subjected to the first culture in a medium (DMEM/1% B-27 (INS+)/Penicillin Streptomycin/dimethyl sulfoxide) containing differentiation-inducing factors (GSK3β inhibitor, ROCK inhibitor and low dose of activin A) under conditions causing action of insulin, and subsequently subjected to the second culture in a medium (DMEM/1% B-27 (INS−)/Penicillin Streptomycin/dimethyl sulfoxide) containing a differentiation-inducing factor (low dose of activin A) under conditions causing no action of insulin to obtain a definitive endoderm cell population. […] The exchange from the bioreactor to the multiwell plate was carried out in step 6).
Marker protein expression (PDX1 and CHGA) in each cell population before the start of and after the completion of extended culture was measured by flow cytometry. Marker protein expression (NKX6.1, C-peptide (insulin), PDX1, and CHGA) in the cell population obtained 7 days after the start of step 6) was also measured by flow cytometry. Respective samples were collected by sampling from separate culture containers. The number of cells was measured in an automatic cell counter at the time of sample preparation for flow cytometry, and the total number of cells per well of the multiwell plate was calculated.

[2] = tested on: non-endocrine cells in insulin-producing cell population (QHJI-I14s04 iPS cell line); assay: Cisplatin or docetaxel treatment in step 6), then extended culture in basal medium containing EGF (Example 2)
Description: The differentiation of a QHJI-I14s04 iPS cell line into an insulin-producing cell population was induced by the three-dimensional culture method using a bioreactor according to steps 1) to 6) described above and the previous report (Nature Biotechnology 2014; 32: 1121-1133). Specifically, the iPS cells were subjected to the first culture in a medium (DMEM/1% B-27 (INS+)/Penicillin Streptomycin/dimethyl sulfoxide) containing differentiation-inducing factors (GSK3β inhibitor, ROCK inhibitor and low dose of activin A) under conditions causing action of insulin, and subsequently subjected to the second culture in a medium (DMEM/1% B-27 (INS−)/Penicillin Streptomycin/dimethyl sulfoxide) containing a differentiation-inducing factor (low dose of activin A) under conditions causing no action of insulin to obtain a definitive endoderm cell population. Further, a pancreatic endocrine progenitor cell population obtained by the induction of differentiation from the definitive endoderm cell population was cultured in a medium (Improved MEM/1% B-27 (INS+)/Penicillin Streptomycin) containing differentiation-inducing factors (ALK5 inhibitor II, T3, LDN, Y-secretase inhibitor RO, and ascorbic acid) and FGF receptor 1 inhibitor (PD-166866) to obtain an insulin-producing cell population.
An insulin-producing cell population obtained without the addition of cisplatin and docetaxel was used as a control cell population and subjected to extended culture in the same manner as above.
Marker protein expression (PDX1, CHGA, and Ki67) in each insulin-producing cell population before the start of and after the completion of extended culture was measured by flow cytometry. Samples after the completion of extended culture were collected by sampling three times from the same culture container. The number of cells was measured in an automatic cell counter at the time of sample preparation for flow cytometry, and the total number of cells per mL of the bioreactor was calculated. The number of CHGA-positive cells, the number of PDX1-positive and CHGA-negative cells, and the number of PDX1-negative and CHGA-negative cells were calculated from the obtained total number of cells and the flow cytometry results.

[3] = tested on: insulin-producing cell population (QHJI-114s04 iPS cell line); assay: Marker protein expression by flow cytometry of insulin-producing cell population prepared by addition of docetaxel (Example 3)
Description: The differentiation of a QHJI-114s04 iPS cell line into insulin-producing cells was induced by the three-dimensional culture method using a bioreactor and a multiwell plate according to steps 1) to 6) described above and the previous report (Nature Biotechnology 2014; 32: 1121-1133). Specifically, the iPS cells were subjected to the first culture in a medium (DMEM/1% B-27 (INS+)/Penicillin Streptomycin/dimethyl sulfoxide) containing differentiation-inducing factors (GSK3β inhibitor, ROCK inhibitor and low dose of activin A) under conditions causing action of insulin, and subsequently subjected to the second culture in a medium (DMEM/1% B-27 (INS−)/Penicillin Streptomycin/dimethyl sulfoxide) containing a differentiation-inducing factor (low dose of activin A) under conditions causing no action of insulin to obtain definitive endoderm cells. Further, a pancreatic endocrine progenitor cell population obtained by the induction of differentiation from the definitive endoderm cells was cultured in a medium (MCDB131/20 mM Glucose/NaHCO3/FAF-BSA/ITS-X/Glutamax/Penicillin Streptomycin) containing differentiation-inducing factors (ALK5 inhibitor II, T3, LDN, γ-secretase inhibitor RO, […]) to obtain an insulin-producing cell population. The exchange from the bioreactor to the multiwell plate was carried out in step 6).
Marker protein expression (NKX6.1, C-peptide (insulin), CHGA, and Ki67) in each insulin-producing cell population after the completion of culture was measured by flow cytometry. Respective samples were collected by sampling from separate culture containers. The number of cells was measured in an automatic cell counter at the time of sample preparation for flow cytometry, and the total number of cells per well of the multiwell plate was calculated.

[4] = +Docetaxel 4 days from day 7 (1 μM), s6d11
[5] = +Docetaxel 4 days from day 7, after extended culture, EGF absent
[6] = +Docetaxel 4 days from day 7, after extended culture, EGF present
[7] = +Docetaxel 7 days from day 4 (1 μM), s6d11
[8] = +Docetaxel 7 days from day 4, after extended culture, EGF absent
[9] = +Docetaxel 7 days from day 4, after extended culture, EGF present
[10] = after extended culture 4 weeks, EGF present, average of three samplings
[11] = after extended culture 4 weeks, EGF present, single samplings
[12] = after extended culture involving EGF, with respect to control cell population
[13] = s6d11 (before extended culture); 3 μM cisplatin or 1 μM docetaxel for 7 days from day 4 of step 6)

## CC(=O)O[C@@]12CO[C@@H]1C[C@H](O)[C@@]1(C)C(=O)[C@H](O)C3=C(C)[C@@H](OC(=O)[C@H](O)[C@@H](NC(=O)OC(C)(C)C)c4ccccc4)C[C@@](O)([C@@H](OC(=O)c4ccccc4)[C@H]21)C3(C)C [Docetaxel, (−)-(1S,2S,3R,4S,5R,7S,8S,10R,13S)-4-Acetoxy-2-benzoyloxy-5,20-epoxy-1,7,10-trihydroxy-9-oxotax-11-en-13-yl (2R,3S)-3-tert-butoxycarbonylamido-2-hydroxy-3-phenylpropionate]
[1]; +Docetaxel 4 days from day 7
  population exhibiting marked increase by extended culture involving EGF (table footnote): No population exhibited marked increase by extended culture involving EGF
  proportions of PDX1+/CHGA− and PDX1−/CHGA− cells after extended culture involving EGF: drastically decreased
[1]; [4]
  The number of cells CHGA+: 177 ×10^4 cells/well
  The number of cells PDX+/CHGA−: 0.7 ×10^4 cells/well
  The number of cells PDX−/CHGA−: 0.9 ×10^4 cells/well
  Total number of cells: 178 ×10^4 cells/well
[1]; [5]
  The number of cells CHGA+: 132 ×10^4 cells/well
  The number of cells PDX+/CHGA−: 1.5 ×10^4 cells/well
  The number of cells PDX−/CHGA−: 6.3 ×10^4 cells/well
  Total number of cells: 140 ×10^4 cells/well
[1]; [6]
  The number of cells CHGA+: 144 ×10^4 cells/well and 133 ×10^4 cells/well and 147 ×10^4 cells/well
  The number of cells PDX+/CHGA−: 1.1 ×10^4 cells/well and 1.3 ×10^4 cells/well and 1.2 ×10^4 cells/well
  The number of cells PDX−/CHGA−: 5.6 ×10^4 cells/well and 6.6 ×10^4 cells/well and 5.9 ×10^4 cells/well
  Total number of cells: 151 ×10^4 cells/well and 141 ×10^4 cells/well and 154 ×10^4 cells/well
[1]; +Docetaxel 7 days from day 4
  population exhibiting marked increase by extended culture involving EGF (table footnote): No population exhibited marked increase by extended culture involving EGF
  proportions of PDX1+/CHGA− and PDX1−/CHGA− cells after extended culture involving EGF: drastically decreased
[1]; [7]
  The number of cells CHGA+: 209 ×10^4 cells/well
  The number of cells PDX+/CHGA−: 0.4 ×10^4 cells/well
  The number of cells PDX−/CHGA−: 0.8 ×10^4 cells/well
  Total number of cells: 210 ×10^4 cells/well
[1]; [8]
  The number of cells CHGA+: 126 ×10^4 cells/well
  The number of cells PDX+/CHGA−: 1.5 ×10^4 cells/well
  The number of cells PDX−/CHGA−: 5.0 ×10^4 cells/well
  Total number of cells: 132 ×10^4 cells/well
[1]; [9]
  The number of cells CHGA+: 132 ×10^4 cells/well and 127 ×10^4 cells/well and 159 ×10^4 cells/well
  The number of cells PDX+/CHGA−: 0.8 ×10^4 cells/well and 1.5 ×10^4 cells/well
  The number of cells PDX−/CHGA−: 4.7 ×10^4 cells/well and 2.9 ×10^4 cells/well and 4.8 ×10^4 cells/well
  Total number of cells: 138 ×10^4 cells/well and 165 ×10^4 cells/well
[2]; 1 μM docetaxel, extended culture with EGF
  population exhibiting marked increase by extended culture (table footnote): No population exhibited marked increase by extended culture
[2]; [10]
  The number of cells CHGA+, average: 22 ×10^4 cells/mL
  The number of cells PDX+/CHGA−, average: 1.7 ×10^4 cells/mL
  The number of cells PDX−/CHGA−, average: 2.8 ×10^4 cells/mL
  Total number of cells, average: 27 ×10^4 cells/mL
[2]; [11]
  The number of cells CHGA+: 21 ×10^4 cells/mL and 22 ×10^4 cells/mL and 24 ×10^4 cells/mL
  The number of cells PDX+/CHGA−: 2.0 ×10^4 cells/mL and 1.5 ×10^4 cells/mL
  The number of cells PDX−/CHGA−: 3.1 ×10^4 cells/mL and 2.7 ×10^4 cells/mL
  Total number of cells: 26 ×10^4 cells/mL and 28 ×10^4 cells/mL
[2]; [12]
  proportion of PDX1-negative and CHGA-negative (PDX1−/CHGA−) cells: drastically decreased
  proportion of PDX1-positive and CHGA-negative (PDX1+/CHGA−) cells: drastically decreased
[2]; extended culture involving EGF
  total number of cells after extended culture (in words): decreased
[2]; [13]
  The number of cells CHGA+: 73 ×10^4 cells/mL
  The number of cells PDX+/CHGA−: 1.3 ×10^4 cells/mL
  The number of cells PDX−/CHGA−: 0.1 ×10^4 cells/mL
  Total number of cells: 74 ×10^4 cells/mL
[2]; with respect to control cell population
  number of CHGA-positive endocrine cells after extended culture (in words): not changed
[3]; 1 μM docetaxel, 7 days from day 4 of step 6), with respect to control cell population
  increase of proportion of INS-positive and NKX6.1-positive cells: about 10%
[3]; docetaxel treatment 1, 3 or 10 μM
  Total number of cells: not changed
[3]; medium with PD-166866, irrespective of presence or absence of docetaxel treatment, without extended culture
  abundance of CHGA-negative and Ki67-positive (CHGA−/Ki67+) cells: ≤ 0.1%
[3]; up to the docetaxel concentration of 10 μM
  action on proportion of INS-positive and NKX6.1-positive cells at higher concentration: not changed
